Values after ≈ are worked out from the molar mass of the structure shown.
How the values were obtained:
Type in all cases: functional
Escherichia coli = assay: Antibacterial activity against Escherichia coli ATCC 25922 assessed as bacterial growth inhibition incubated for 16 to 18 hrs by CLSI based susceptibility testing method; conditions: time 16-18 hrs
Staphylococcus aureus = assay: Antibacterial activity against Staphylococcus aureus ATCC 29213 assessed as bacterial growth inhibition incubated for 16 to 18 hrs by CLSI based susceptibility testing method; conditions: time 16-18 hrs
Klebsiella pneumoniae = assay: Antibacterial activity against Klebsiella pneumoniae BAA 1705 assessed as bacterial growth inhibition incubated for 16 to 18 hrs by CLSI based susceptibility testing method; conditions: time 16-18 hrs
Acinetobacter baumannii = assay: Antibacterial activity against Acinetobacter baumannii BAA 1605 assessed as bacterial growth inhibition incubated for 16 to 18 hrs by CLSI based susceptibility testing method; conditions: time 16-18 hrs
Pseudomonas aeruginosa = assay: Antibacterial activity against Pseudomonas aeruginosa ATCC 27853 assessed as bacterial growth inhibition incubated for 16 to 18 hrs by CLSI based susceptibility testing method; conditions: time 16-18 hrs
[1] = test system: Mycobacterium tuberculosis; assay: Antimycobacterial activity against Mycobacterium tuberculosis H37Rv ATCC 27294 assessed as bacterial growth inhibition incubated for 7 days by resazurin dye based assay; conditions: H37Rv ATCC 27294, 168 h, time 7 day
[2] = test system: Mycobacteroides abscessus; assay: Antimycobacterial activity against Mycobacterium abscessus ATCC 19977 assessed as bacterial growth inhibition incubated for 7 days by resazurin dye based assay; conditions: ATCC 19977, 168 h, time 7 day
[3] = test system: Mycolicibacterium fortuitum; assay: Antimycobacterial activity against Mycobacterium fortuitum ATCC 6841 assessed as bacterial growth inhibition incubated for 7 days by resazurin dye based assay; conditions: ATCC 6841, 168 h, time 7 day
Mycobacteroides chelonae = assay: Antimycobacterial activity against Mycobacteroides chelonae ATCC 35752 assessed as bacterial growth inhibition incubated for 7 days by resazurin dye based assay; conditions: ATCC 35752, 168 h, time 7 day

Compound	MIC (Escherichia coli)	MIC (Staphylococcus aureus)	MIC (Klebsiella pneumoniae)	MIC (Acinetobacter baumannii)	MIC (Pseudomonas aeruginosa)	MIC [1]	MIC [2]	MIC [3]	MIC (Mycobacteroides chelonae)
Cc1cc(/C=C2\S/C(=N/c3nccs3)NC2=O)c(C)n1-c1cccc(F)c1	> 64 µg/mL	1 µg/mL (≈ 2.51 µM)	> 64 µg/mL	> 64 µg/mL	> 64 µg/mL	8 µg/mL (≈ 20.1 µM)	> 64 µg/mL	> 64 µg/mL	> 64 µg/mL
Cc1cc(/C=C2\S/C(=N/c3nccs3)NC2=O)c(C)n1-c1cccc(Cl)c1	> 64 µg/mL	8 µg/mL (≈ 19.3 µM)	> 64 µg/mL	> 64 µg/mL	> 64 µg/mL	> 64 µg/mL	> 64 µg/mL	> 64 µg/mL	> 64 µg/mL
COc1ccc(-n2c(C)cc(/C=C3\S/C(=N/c4nccs4)NC3=O)c2C)cc1	> 64 µg/mL	2 µg/mL (≈ 4.87 µM)	> 64 µg/mL	> 64 µg/mL	> 64 µg/mL	64 µg/mL (≈ 156 µM)	> 64 µg/mL	> 64 µg/mL	> 64 µg/mL
Cc1cc(/C=C2\S/C(=N/c3nccs3)NC2=O)c(C)n1-c1ccc([N+](=O)[O-])c(C(F)(F)F)c1	> 64 µg/mL	> 64 µg/mL	> 64 µg/mL	> 64 µg/mL	> 64 µg/mL	> 64 µg/mL	> 64 µg/mL	> 64 µg/mL	> 64 µg/mL
Cc1cc(/C=C2\S/C(=N/c3nccs3)NC2=O)c(C)n1-c1ccccc1Br	> 64 µg/mL	4 µg/mL (≈ 8.71 µM)	> 64 µg/mL	> 64 µg/mL	> 64 µg/mL	8 µg/mL (≈ 17.4 µM)	> 64 µg/mL	> 64 µg/mL	> 64 µg/mL
COc1cccc(-n2c(C)cc(/C=C3\S/C(=N/c4nc(C)c(C)s4)NC3=O)c2C)c1	> 64 µg/mL	> 64 µg/mL	> 64 µg/mL	> 64 µg/mL	> 64 µg/mL	2 µg/mL (≈ 4.56 µM)	> 64 µg/mL	> 64 µg/mL	> 64 µg/mL
COc1cccc(-n2c(C)cc(/C=C3\S/C(=N/c4nccs4)NC3=O)c2C)c1	> 64 µg/mL	64 µg/mL (≈ 156 µM)	> 64 µg/mL	> 64 µg/mL	> 64 µg/mL	> 64 µg/mL	> 64 µg/mL	> 64 µg/mL	> 64 µg/mL
Cc1cc(/C=C2\S/C(=N/c3nccs3)NC2=O)c(C)n1-c1ccc(Cl)cc1	> 64 µg/mL	4 µg/mL (≈ 9.64 µM)	> 64 µg/mL	> 64 µg/mL	> 64 µg/mL	8 µg/mL (≈ 19.3 µM)	> 64 µg/mL	> 64 µg/mL	> 64 µg/mL
Cc1ccc(-n2c(C)cc(/C=C3\S/C(=N/c4nccs4)NC3=O)c2C)cc1	> 64 µg/mL	4 µg/mL (≈ 10.1 µM)	> 64 µg/mL	> 64 µg/mL	> 64 µg/mL	8 µg/mL (≈ 20.3 µM)	> 64 µg/mL	> 64 µg/mL	> 64 µg/mL
Cc1cc(/C=C2\S/C(=N/c3nccs3)NC2=O)c(C)n1-c1ccccc1	> 64 µg/mL	2 µg/mL (≈ 5.26 µM)	> 64 µg/mL	> 64 µg/mL	> 64 µg/mL	8 µg/mL (≈ 21 µM)	> 64 µg/mL	> 64 µg/mL	> 64 µg/mL
Cc1nc(/N=C2\NC(=O)/C(=C/c3cc(C)n(-c4cc(Cl)ccc4O)c3C)S2)sc1C	> 64 µg/mL	64 µg/mL (≈ 139 µM)	> 64 µg/mL	> 64 µg/mL	> 64 µg/mL	> 64 µg/mL	> 64 µg/mL	> 64 µg/mL	> 64 µg/mL
COc1ccc(-n2c(C)cc(/C=C3\S/C(=N/c4nc(C)c(C)s4)NC3=O)c2C)cc1OC	> 64 µg/mL	64 µg/mL (≈ 137 µM)	> 64 µg/mL	> 64 µg/mL	> 64 µg/mL	> 64 µg/mL	> 64 µg/mL	> 64 µg/mL	> 64 µg/mL
Cc1nc(/N=C2\NC(=O)/C(=C/c3cc(C)n(-c4ccc(F)cc4)c3C)S2)sc1C	> 64 µg/mL	> 64 µg/mL	> 64 µg/mL	> 64 µg/mL	> 64 µg/mL	16 µg/mL (≈ 37.5 µM)	> 64 µg/mL	> 64 µg/mL	> 64 µg/mL
